Source: patent US10377763B2, “Morphinan derivative and medical usage thereof” (UNIVERSITY OF TSUKUBA, priority 2015, dated 2019)
Where two headings read alike, the source gives them in different places.

Experiments:
[1] = target: human OX2R (Homo sapiens (Human), UniProt O43614); assay: Measurement of antagonistic activity against orexin receptors (intracellular calcium, CHOOX2R cells); format: cell-based
Procedure: (§1) The Chinese hamster ovary (CHO) cell lines CHOOX1R and CHOOX2R were established by modifying CHO cells to constantly express the NFAT-luciferase gene and either the human OX1R or human OX2R gene. Those cells were plated at 10,000 cells/well in 96-well multiplates with DMEM (manufactured by Sigma-Aldrich Co. LLC) supplemented with 5% FBS (manufactured by Thermo Scientific Inc.) and incubated at 37° C. and 5% CO2 for 48 hours. After removal of the medium, 100 μL of an assay buffer (20 mM HEPES (manufactured by Sigma-Aldrich Co. LLC), Hank's balanced salt solution (manufactured by Gibco), 0.1% BSA (manufactured by Sigma-Aldrich Co. LLC), 2.5 mM probenecid acid (manufactured by Wako Pure Chemical Industries, Ltd.), pH 7.4) containing 5 μM Fura-2AM (manufactured by Cayman Chemical Co.) was added to each well, and incubated at 37° C. and 5% CO2 for 60 minutes. After removal of the buffer containing Fura-2AM, 75 μL of the assay buffer was added to each well. Then, […] of the assay buffer containing a test compound at various concentrations and OX-A (manufactured by Peptide Institute, Inc.) was added to start the reaction. The change in intracellular calcium ion concentration induced by the reaction was evaluated by the ratio of fluorescent intensities, which were measured at a wavelength of 510 nm based on the two wavelength excitation approach using FDSS 7000 (manufactured by Hamamatsu Photonics K.K.) with fluorescence excitation at 340 nm and 380 nm. A concentration-response curve on the antagonistic activity was plotted from the values of maximal fluorescent intensity ratio determined when various concentrations of a test compound were added in the presence of […] of OX-A, where a value of maximal fluorescent intensity ratio determined by adding 300 pM of OX-A alone corresponds to 100% and a value of maximal fluorescent intensity ratio determined by adding the assay buffer alone corresponds to 0%. Based on the resulting non-linear regression curve, the 50% maximal inhibitory concentration (IC50) was calculated. Each test compound was dissolved in DMSO to a concentration of 10 mM (the final concentration of DMSO was 1%), and then diluted with the assay buffer to give a final concentration of 3.0×10^−10 M to 1.0×10^−5 M (a common ratio of 3), while OX-A was diluted to a final concentration of 300 pM. The experiment was performed in quadruplicate plates, and the results of the four independent measurements were averaged to give the value of each reaction, and then the IC50 of a sample was calculated. If the sample number was 2 or more, the averaged IC50 was used.

[2] = target: human OX1R (Homo sapiens (Human), UniProt O43613); assay: Measurement of antagonistic activity against orexin receptors (intracellular calcium, CHOOX1R cells); format: cell-based; details: for antagonistic activity against human OX1 receptor (in words): summary of Table 6
Sequence of human OX1R (O43613 whole entry): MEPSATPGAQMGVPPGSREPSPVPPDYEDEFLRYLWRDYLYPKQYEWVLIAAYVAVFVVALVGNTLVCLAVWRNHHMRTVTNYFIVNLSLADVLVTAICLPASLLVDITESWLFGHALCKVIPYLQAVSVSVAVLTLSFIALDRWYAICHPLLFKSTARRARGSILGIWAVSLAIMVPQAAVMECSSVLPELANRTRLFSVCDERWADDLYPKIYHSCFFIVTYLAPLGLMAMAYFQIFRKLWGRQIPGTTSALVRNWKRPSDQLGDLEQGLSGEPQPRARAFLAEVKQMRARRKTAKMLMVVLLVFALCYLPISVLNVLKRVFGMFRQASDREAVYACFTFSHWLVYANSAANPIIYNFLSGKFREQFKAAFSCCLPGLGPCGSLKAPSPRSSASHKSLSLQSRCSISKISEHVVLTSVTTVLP
Procedure: as §1

[3] = CHOOX2R cells, 300 pM OX-A, Fura-2 calcium, read-out: OX2 (IC50)
[4] = CHOOX1R cells, 300 pM OX-A, Fura-2 calcium, read-out: OX1 (IC50)

Sequence of human OX2R (O43614 whole entry): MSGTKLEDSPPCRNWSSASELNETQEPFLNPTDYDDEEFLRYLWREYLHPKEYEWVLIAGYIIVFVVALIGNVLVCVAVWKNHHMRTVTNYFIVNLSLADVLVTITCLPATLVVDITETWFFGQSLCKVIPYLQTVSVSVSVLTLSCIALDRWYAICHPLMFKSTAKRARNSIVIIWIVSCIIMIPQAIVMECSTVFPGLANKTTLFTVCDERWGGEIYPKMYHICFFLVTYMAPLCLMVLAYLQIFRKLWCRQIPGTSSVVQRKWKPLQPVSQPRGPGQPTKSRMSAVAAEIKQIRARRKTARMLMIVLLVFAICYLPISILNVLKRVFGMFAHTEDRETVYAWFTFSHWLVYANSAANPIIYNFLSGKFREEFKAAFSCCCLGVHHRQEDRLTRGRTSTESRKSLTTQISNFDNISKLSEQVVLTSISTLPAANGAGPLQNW

Structure (SMILES)	IC50 [1, 3]	IC50 [2, 4]	antagonistic activity against human OX1 receptor (in words) [2]	IC50 [1]	IC50 [2]
COc1ccc2c3c1O[C@H]1[C@H](N(C)C(=O)/C=C/c4ccoc4)CC[C@@]4(O)[C@@H](C2)N(S(=O)(=O)C2CC2)CC[C@]314 [Example 28]	> 10 µM	101 nM	potent and selective antagonistic activity	–	–
COc1ccc2c3c1O[C@H]1[C@H](N(C)C(=O)/C=C/c4ccoc4)CC[C@@]4(O)[C@@H](C2)N(S(=O)(=O)c2cccc5cccnc25)CC[C@]314 [Example 25]	> 10 µM	198 nM	potent and selective antagonistic activity	–	–
COc1ccc2c3c1O[C@H]1[C@H](N(C)C(=O)/C=C/c4ccoc4)CC[C@@]4(O)[C@@H](C2)N(S(=O)(=O)c2ccccc2C#N)CC[C@]314 [Example 11]	> 10 µM	49.1 nM	potent and selective antagonistic activity	–	–
COc1ccc2c3c1O[C@H]1[C@H](N(C)C(=O)/C=C/c4ccoc4)CC[C@@]4(O)[C@@H](C2)N(S(=O)(=O)c2cccc(C)c2)CC[C@]314 [Example 3]	> 10 µM	24 nM	potent and selective antagonistic activity	–	–
CCCCS(=O)(=O)N1CC[C@]23c4c5ccc(OC)c4O[C@H]2[C@H](N(C)C(=O)/C=C/c2ccoc2)CC[C@@]3(O)[C@H]1C5 [Example 27]	> 10 µM	87.8 nM	potent and selective antagonistic activity	–	–
CN(C(=O)/C=C/c1ccoc1)[C@@H]1CC[C@@]2(O)[C@H]3Cc4ccc(O)c5c4[C@@]2(CCN3CC2CC2)[C@H]1O5.Cl [Comparative Example 1, (E)-N-[(4R,4aS,7R,7aR,12bS)-3-(cyclopropylmethyl)-4a,9-dihydroxy-2,3,4,4a,5,6,7,7a-octahydro-1H-4,12-methanobenzofuro[3,2-e]isoquinolin-7-yl]-3-(furan-3-yl)-N-methylacrylamide hydrochloride, reference compound]	> 10 µM	1650 nM	very weak antagonistic activity	–	–
COc1ccc2c3c1O[C@H]1[C@H](N(C)C(=O)/C=C/c4ccoc4)CC[C@@]4(O)[C@@H](C2)N(S(=O)(=O)c2ccccc2)CC[C@]314 [Example 1, (E)-3-(furan-3-yl)-N-[(4R,4aS,7R,7aR,12bS)-4a-hydroxy-9-methoxy-3-(phenylsulfonyl)-2,3,4,4a,5,6,7,7a-octahydro-1H-4,12-methanobenzofuro[3,2-e]isoquinolin-7-yl]-N-methylacrylamide]	–	–	potent and selective antagonistic activity	> 10 µM	82.8 nM
COc1ccc2c3c1O[C@H]1[C@H](N(C)C(=O)/C=C/c4ccoc4)CC[C@@]4(O)[C@@H](C2)N(C(=O)c2ccc(C)cc2)CC[C@]314 [Example 35]	> 10 µM	571 nM	potent and selective antagonistic activity	–	–
COc1ccc2c3c1O[C@H]1[C@H](N(C)C(=O)/C=C/c4ccoc4)CC[C@@]4(O)[C@@H](C2)N(S(=O)(=O)c2c(C)cc(C)cc2C)CC[C@]314 [Example 23]	> 10 µM	121 nM	potent and selective antagonistic activity	–	–
COc1ccc2c3c1O[C@H]1[C@H](N(C)C(=O)Nc4ccccc4)CC[C@@]4(O)[C@@H](C2)N(S(=O)(=O)c2ccccc2)CC[C@]314 [Example 41]	> 10 µM	159 nM	potent and selective antagonistic activity	–	–
COc1ccc2c3c1O[C@H]1[C@H](N(C)C(=O)/C=C/c4ccoc4)CC[C@@]4(O)[C@@H](C2)N(S(=O)(=O)c2ccccc2[N+](=O)[O-])CC[C@]314 [Example 8]	> 10 µM	144 nM	potent and selective antagonistic activity	–	–
COc1ccc2c3c1O[C@H]1[C@H](N(C)C(=O)C=Cc4ccccc4)CC[C@@]4(O)[C@@H](C2)N(S(=O)(=O)c2ccccc2)CC[C@]314 [Example 38, N-[(4R,4aS,7R,7aR,12bS)-4a-hydroxy-9-methoxy-3-(phenylsulfonyl)-2,3,4,4a,5,6,7,7a-octahydro-1H-4,12-methanobenzofuro[3,2-e]isoquinolin-7-yl]-N-methylcinnamide]	> 10 µM	128 nM	potent and selective antagonistic activity	–	–
COc1ccc2c3c1O[C@H]1[C@H](N(C)C(=O)/C=C/c4ccoc4)CC[C@@]4(O)[C@@H](C2)N(S(=O)(=O)c2cccc(Br)c2)CC[C@]314 [Example 21]	> 10 µM	200 nM	potent and selective antagonistic activity	–	–
COc1ccc2c3c1O[C@H]1[C@H](N(C)C(=O)/C=C/c4ccoc4)CC[C@@]4(O)[C@@H](C2)N(S(=O)(=O)c2ccc(N(C)C)cc2)CC[C@]314.Cl [Example 32]	> 10 µM	11.7 nM	potent and selective antagonistic activity	–	–
COc1ccc2c3c1O[C@H]1[C@H](N(C)C(=O)/C=C/c4ccoc4)CC[C@@]4(O)[C@@H](C2)N(C(=O)C2CC2)CC[C@]314 [Example 34]	> 10 µM	259 nM	potent and selective antagonistic activity	–	–
COc1ccc2c3c1O[C@H]1[C@H](N(C)C(=O)NCc4ccccc4)CC[C@@]4(O)[C@@H](C2)N(S(=O)(=O)c2ccccc2)CC[C@]314 [Example 42]	> 10 µM	688 nM	potent and selective antagonistic activity	–	–
COc1ccc2c3c1O[C@H]1[C@H](N(C)C(=O)/C=C/c4ccoc4)CC[C@@]4(O)[C@@H](C2)N(S(=O)(=O)c2ccccc2C)CC[C@]314 [Example 2]	> 10 µM	30 nM	potent and selective antagonistic activity	–	–
COc1ccc2c3c1O[C@H]1[C@H](N(C)C(=O)/C=C/c4ccoc4)CC[C@@]4(O)[C@@H](C2)N(S(=O)(=O)c2cccc(Cl)c2)CC[C@]314 [Example 18]	> 10 µM	195 nM	potent and selective antagonistic activity	–	–
COc1ccc2c3c1O[C@H]1[C@H](N(C)Cc4ccccc4)CC[C@@]4(O)[C@@H](C2)N(C(=O)OC(C)(C)C)CC[C@]314 [Comparative Example 2, tert-butyl(4R,4aS,7R,7aR,12bS)-7-[benzyl(methyl)amino]-4a-hydroxy-9-methoxy-1,2,4,4a,5,6,7,7a-octahydro-3H-4,12-methanobenzofuro[3,2-e]isoquinolin-3-carboxylate, reference compound]	> 10 µM	2850 nM	very weak antagonistic activity	–	–
COc1ccc2c3c1O[C@H]1[C@H](N(C)C(=O)/C=C/c4ccoc4)CC[C@@]4(O)[C@@H](C2)N(S(=O)(=O)c2ccc(C)cc2)CC[C@]314 [Example 4]	> 10 µM	162 nM	potent and selective antagonistic activity	–	–
COc1ccc2c3c1O[C@H]1[C@H](N(C)C(=O)/C=C/c4ccoc4)CC[C@@]4(O)[C@@H](C2)N(S(=O)(=O)c2ccccc2C(F)(F)F)CC[C@]314 [Example 5]	> 10 µM	419 nM	potent and selective antagonistic activity	–	–
COc1ccc2c3c1O[C@H]1[C@H](N(C)C(=O)/C=C/c4ccoc4)CC[C@@]4(O)[C@@H](C2)N(S(=O)(=O)c2ccccc2Br)CC[C@]314 [Example 20]	> 10 µM	56.2 nM	potent and selective antagonistic activity	–	–
COc1ccc2c3c1O[C@H]1[C@H](N(C)C(=O)/C=C/c4ccoc4)CC[C@@]4(O)[C@@H](C2)N(S(=O)(=O)c2cccc(F)c2)CC[C@]314 [Example 15]	> 10 µM	112 nM	potent and selective antagonistic activity	–	–
